Measurements published in patent publication US7723070B2, “Overexpression of aminoacyl-tRNA synthetases for efficient production of engineered proteins containing amino acid analogues” (California Institute of Technology, priority 2000, dated 2010).
Entries after “also recorded” stand apart in the source; their conditions may differ.

Molecular target: T1, methionyl tRNA synthetase (MetRS) (Escherichia coli, UniProt P00959)
T1 sequence (P00959 1-548 limits assumed): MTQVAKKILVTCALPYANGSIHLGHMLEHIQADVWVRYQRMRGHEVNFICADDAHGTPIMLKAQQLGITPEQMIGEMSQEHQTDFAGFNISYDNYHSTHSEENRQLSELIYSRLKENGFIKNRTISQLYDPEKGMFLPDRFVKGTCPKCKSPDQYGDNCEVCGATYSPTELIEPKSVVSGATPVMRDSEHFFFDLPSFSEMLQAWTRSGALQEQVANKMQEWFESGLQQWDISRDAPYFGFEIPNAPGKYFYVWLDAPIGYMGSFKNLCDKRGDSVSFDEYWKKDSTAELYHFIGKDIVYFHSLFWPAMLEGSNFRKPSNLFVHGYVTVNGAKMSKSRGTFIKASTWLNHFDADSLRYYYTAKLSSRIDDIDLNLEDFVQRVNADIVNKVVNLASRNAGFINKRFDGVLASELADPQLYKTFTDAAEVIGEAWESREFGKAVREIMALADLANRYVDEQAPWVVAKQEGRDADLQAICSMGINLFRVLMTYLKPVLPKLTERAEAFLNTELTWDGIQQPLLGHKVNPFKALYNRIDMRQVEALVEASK
Assay: ATP-PPi exchange assay: activation of methionine and methionine analogues by MetRS
Assay type: biochemical, E. coli
Set-up: The fully active, truncated form of methionyl tRNA synthetase (MetRS) was purified from overnight cultures of JM101 cells carrying the plasmid pGG3; made in house; host or cells: E. coli JM101 carrying plasmid pGG3
Details: for fold lower kcat/Km (less efficiently activated) than methionine: relative to methionine
Description: The fully active, truncated form of methionyl tRNA synthetase (MetRS) was purified from overnight cultures of JM101 cells carrying the plasmid pGG3. (The plasmid, which encodes the tryptic fragment of MetRS, Ghosh, G.; Brunie, S.; Schulman, L. H. J. Biol. Chem. 1991, 266, 17136-17141). The enzyme was purified by size exclusion chromotography as previously described (Mellot, P.; Mechulam, Y.; LeCorre, D.; Blanquet, S.; Fayat, G. J. Mol. Biol. 1989, 208, 429). Activation of methionine analogues by MetRS was assayed via the amino-acid-dependent ATP-PPi exchange reaction, also as previously described (Mellot, P.; Mechulam, Y.; LeCorre, D.; Blanquet, S.; Fayat, G. J. Mol. Biol. 1989, 208, 429; Blanquet, S.; Fayat, G.; Waller, J.-P. Eur. J. Biochem. 1974, 44, 343; Ghosh, G.; Pelka, H.; Schulman, L. H. Biochemistry 1990, 29, 2220). The assay, which measures the ^32P-radiolabeled ATP formed by the enzyme-catalyzed exchange of ^32P-pyrophosphate (PPi) into ATP, was conducted in 150 μl of reaction buffer (pH 7.6, 20 mM imidazole; 0.1 mM EDTA, 10 mM β-mercaptoethanol, 7 mM MgCl2, 2 mM ATP, 0.1 mg/ml BSA, and 2 mM PPi (in the form of sodium pyrophosphate with a specific activity of approximately 0.18 TBq/mole)). […] Kinetic parameters for analogue 5 were obtained with an enzyme concentration of 75 nM and analogue concentrations of 100 μM to 10 mM. Parameters for methionine were obtained by using concentrations ranging from 10 μM to 1 mM. […] Aliquots of 20 μl were removed from the reaction mixture at various time points and were quenched in 0.5 ml of a solution comprising 200 mM PPi, 7% w/v HClO4, and 3% w/v activated charcoal. The charcoal was rinsed twice with 0.5 mL of a 10 mM PPi, 0.5% HClO4 solution and was then resuspended in 0.5 mL of this solution and counted via liquid scintillation methods. Kinetic constants were calculated by nonlinear regression analysis.
The fully active, truncated form of MetRS was purified from overnight cultures of JM101 cells carrying the plasmid pGG3. The enzyme was purified by size exclusion chromotography as previously described (P. Mellot, Y. Mechulam, D. LeCorre, S. Blanquet, G. Fayat, J. Mol. Biol. 1989, 208, 429-443). Activation of methionine analogues by MetRS was assayed at 25° C. via the amino acid-dependent ATP-PPi exchange reaction, also as described in Example I (G. Ghosh, H. Pelka, L. H. Schulman, Biochemistry 1990, 29, 2220-2225). […] Kinetic parameters for analogue 5 were obtained with an enzyme concentration of 50 nM and analogue concentrations of 100 μM to 10 mM. Kinetic parameters for analogue 11 were determined using an enzyme concentration of 50 nM and analogue concentrations ranging from 750 μM to 20 mM. Kinetic parameters for analogues 4, 7, 8, and 12 were obtained with an enzyme concentration of 50 or 75 nM and analogue concentrations ranging from 5 to 70 mM. Parameters for methionine were obtained by using concentrations ranging from 10 μM to 1 mM. […] Kinetic constants were calculated by nonlinear regression analysis.
The fully active, truncated form of MetRS was purified from overnight cultures of E. coli JM101 cells carrying the plasmid pGG3 (Kim, H. Y.; Ghosh, G.; Schulman, L. H.; Brunie, S.; Jakubowski, H. Proc. Natl. Acad. Sci. USA 1993, 90, 11553-11557), by using size exclusion methods previously reported (Mellot, P.; Mechulam, Y.; LeCorre, D.; Blanquet, S.; Fayat, G. J. Mol. Biol. 1989, 208, 429-443). Purified enzyme solutions (in 10 mM phosphate, pH 6.7, 10 mM (β-mercaptoethanol) were concentrated to at least 3 μM prior to their storage in 40% glycerol at −20° C. Concentrations of enzyme stocks were determined by the Bradford method, using samples of MetRS quantified by amino acid analysis as standards.

[1] = 75 nM enzyme, 5 mM L-isomer, 20 minutes
[2] = ATP-PPi exchange, purified truncated MetRS

CSCC[C@H](N)C(=O)O [Analogue 1, L-methionine, reference compound]
amount of PPi exchanged at a reaction time of 20 minutes [1]: 9 mmol

2-butynylglycine [Analogue 11]
rate/level of PPi exchange (activation by MetRS), in words [1]: very slow exchange of PPi; also recorded: slow exchange of PPi | Km [2]: 38.6 mM | kcat [2]: 1.51 ± 0.5 s⁻¹ | fold lower kcat/Km (less efficiently activated) than methionine: 13825 fold

C/C=C/CC(N)C(=O)O (racemic) [Analogue 5, trans-2-amino-4-hexenoic acid]
rate/level of PPi exchange (activation by MetRS), in words [1]: very slow exchange of PPi; also recorded: neither recognized efficiently; also recorded: slow exchange of PPi | fold lower kcat/Km (less efficiently activated) than methionine: 4700 fold

C=CCCC(N)C(=O)O (racemic) [Analogue 2, DL-2-amino-5-hexenoic acid]
rate/level of PPi exchange (activation by MetRS), in words [1]: rates similar to that of norleucine (9); also recorded: several-fold lower than methionine | fold lower kcat/Km (less efficiently activated) than methionine: 1850 fold

C#CCCC(N)C(=O)O (racemic) [Analogue 3, DL-homopropargylglycine]
rate/level of PPi exchange (activation by MetRS), in words [1]: rates similar to that of norleucine (9); also recorded: several-fold lower than methionine | fold lower kcat/Km (less efficiently activated) than methionine: 500 fold

C=CCC(N)C(=O)O (stereo not shown) [Analogue 12, allylglycine]
rate/level of PPi exchange (activation by MetRS), in words [1]: very slow exchange of PPi

CCC[C@H](N)C(=O)O [Analogue 8, L-norvaline]
rate/level of PPi exchange (activation by MetRS), in words [1]: very slow exchange of PPi

CCCC[C@H](N)C(=O)O [Analogue 9, L-norleucine]
fold lower kcat/Km (less efficiently activated) than methionine: 1050 fold

C/C=C\CC(N)C(=O)O (racemic) [Analogue 4, cis-2-amino-4-hexenoic acid]
rate/level of PPi exchange (activation by MetRS), in words [1]: does not cause measurable exchange of PPi; also recorded: very slow exchange of PPi

CCCCCC(N)C(=O)O (racemic) [Analogue 7, DL-2-aminoheptanoic acid]
rate/level of PPi exchange (activation by MetRS), in words [1]: very slow exchange of PPi
